*1 amine or outer side, *2 acyl side, *3 side chain or, on linkers, in order; H or OH if unused. Glutaryl = O=C(CCCC(=O)[*:2])[*:1]; code Z = not defined here
What was measured:
[1] = biological target: T1, fibrin (in vitro human plasma clot) (Homo sapiens, UniProt P02671+P02675+P02679); assay: Incorporation into human plasma clots in vitro; type: biochemical; details: for % specific uptake: % retained (with thrombin) - % retained (no thrombin); for % retained (no thrombin): control without thrombin and calcium chloride (non-specific binding); for % retained (with thrombin): human plasma clot, 60 minutes, ca. 20° C.
T1 construct: about 400 μl of human plasma containing the radiolabelled substrate; from tissue; host or cells: human plasma, clotted in vitro with added thrombin and calcium chloride
T1 sequence (P02671 20-644 isoform P02671-2 limits assumed): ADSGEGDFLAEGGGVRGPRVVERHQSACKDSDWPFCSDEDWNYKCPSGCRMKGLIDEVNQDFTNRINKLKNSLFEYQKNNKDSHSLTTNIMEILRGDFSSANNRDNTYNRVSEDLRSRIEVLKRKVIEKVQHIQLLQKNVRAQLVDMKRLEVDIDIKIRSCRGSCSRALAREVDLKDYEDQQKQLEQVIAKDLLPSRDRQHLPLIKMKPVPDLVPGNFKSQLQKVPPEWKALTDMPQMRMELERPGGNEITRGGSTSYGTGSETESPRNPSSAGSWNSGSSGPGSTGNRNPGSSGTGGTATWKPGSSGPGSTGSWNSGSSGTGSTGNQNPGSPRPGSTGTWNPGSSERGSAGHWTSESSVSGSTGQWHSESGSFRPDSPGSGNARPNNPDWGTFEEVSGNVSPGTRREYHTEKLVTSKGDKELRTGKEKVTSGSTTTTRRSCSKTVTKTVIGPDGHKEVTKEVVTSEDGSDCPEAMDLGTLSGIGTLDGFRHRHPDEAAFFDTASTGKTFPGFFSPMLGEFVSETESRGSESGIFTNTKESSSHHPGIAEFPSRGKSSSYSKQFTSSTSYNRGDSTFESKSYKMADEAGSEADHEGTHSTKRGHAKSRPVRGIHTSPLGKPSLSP
T1 sequence (P02675 45-491 limits assumed): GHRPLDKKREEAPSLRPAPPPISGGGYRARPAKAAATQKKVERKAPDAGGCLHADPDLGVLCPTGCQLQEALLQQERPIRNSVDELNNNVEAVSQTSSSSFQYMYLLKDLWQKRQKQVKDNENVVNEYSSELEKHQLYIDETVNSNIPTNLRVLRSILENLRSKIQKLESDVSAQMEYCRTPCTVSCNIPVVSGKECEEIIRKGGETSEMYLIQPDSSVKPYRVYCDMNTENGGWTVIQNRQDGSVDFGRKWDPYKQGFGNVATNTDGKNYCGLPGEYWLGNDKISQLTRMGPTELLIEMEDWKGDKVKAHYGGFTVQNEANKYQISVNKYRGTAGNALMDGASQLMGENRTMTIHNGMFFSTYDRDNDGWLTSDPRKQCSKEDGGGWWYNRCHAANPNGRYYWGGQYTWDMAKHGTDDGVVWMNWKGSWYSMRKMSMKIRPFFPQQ
T1 sequence (P02679 27-437 isoform P02679-2 limits assumed): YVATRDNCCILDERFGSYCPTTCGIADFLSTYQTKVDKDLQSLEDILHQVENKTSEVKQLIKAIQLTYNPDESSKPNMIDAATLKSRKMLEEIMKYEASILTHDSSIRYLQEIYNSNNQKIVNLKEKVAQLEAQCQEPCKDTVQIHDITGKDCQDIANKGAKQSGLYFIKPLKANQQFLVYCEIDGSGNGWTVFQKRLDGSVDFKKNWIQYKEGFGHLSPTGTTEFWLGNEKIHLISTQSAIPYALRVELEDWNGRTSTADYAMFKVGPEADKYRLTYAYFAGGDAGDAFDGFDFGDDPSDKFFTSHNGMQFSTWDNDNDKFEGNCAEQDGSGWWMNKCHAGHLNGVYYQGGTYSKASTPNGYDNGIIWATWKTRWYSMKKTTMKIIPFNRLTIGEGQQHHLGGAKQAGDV
Experimental: Incorporation of radiolabelled substrates into fibrin was investigated by induction of an in vitro human plasma clot in the following manner. To a siliconised 5 ml glass vial was added, (a) 800 μl of Tris(hydroxymethyl)aminomethane buffered saline pH 7.5 containing calcium chloride (50 mM Tris, 150 mM sodium chloride, 4 mM calcium chloride.), (b) about 40 μl of physiological salt solution containing 100 units of thrombin per ml, (c) about 400 μl of human plasma containing the radiolabelled substrate at a concentration of typically 10 kBq/ml. To aid induction of clot a roughened glass rod was added to the reaction vial. Control vials were prepared similarly but with the omission of thrombin and calcium chloride.
After incubation of the test solution at ambient laboratory temperature (ca. 20° C.) for 60 minutes the reaction was discontinued with the addition of about 400 μl of a cold solution of 33.5 mM ethylenediaminetetra-acetic acid disodium salt. Clots were separated from serum by vacuum filtration onto […] nitrocellulose filters (pre-soaked in 1.5% BSA/tris(hydroxymethyl)aminoethae buffered saline pH 7.5 containing 0.1% Tween 20) and washed with about 2×10 ml of tris(hydroxymethyl)aminomethane buffered saline pH 7.5 containing Tween 20 to a final concentration of 0.1% v/v. The proportion of total radioactivity was calculated by counting in suitable detection apparatus.
The fraction of radioactivity retained on the filter, after subtraction of the non-specific binding determined from the control, is a measure of incorporation into the filtered clots.

[2] = Incorporation into clots induced in a rat model (rat inferior vena cava model); type: in vivo, rat (Male Wistar); details: for % id/g (clot) / Rel. Conc. (cpm/g of clot by dose/g animal): sacrificed after 60 min
Experimental: The rats (Male Wistar, 250–350 g) were anaesthetised with 15% urethane. After laparotomy, the vena cava was isolated and freed of surrounding fat tissue. […] The compounds were injected 5 min (fresh clot) and 60 min (aged clot) post-induction. After 60 min the animals were sacrificed and the clot removed, weighed and counted. Other tissues e.g. blood, lung, heart, were also dissected and counted. The uptake of tracer into the clot was determined as the relative concentration (cpm/g of clot by dose/g animal) and clot to background tissue.

[3] = Aged Clots: injected 60 min post-induction
[4] = Fresh Clots: injected 5 min post-induction

Row | Substance | % specific uptake [1] [%] | % retained (no thrombin) [1] [%] | % retained (with thrombin) [1] [%] | in vitro clot uptake (in words) ([1]; in vitro clot) | Clot/blood ([2]; Aged Clots) | Clot/heart ([2]; Aged Clots) | Clot/liver ([2]; Aged Clots) | Clot/lung ([2]; Aged Clots) | % id/g (clot) [2, 3] [% id/g] | Rel. Conc. (cpm/g of clot by dose/g animal) [2, 3] | Clot/blood ([2]; Fresh Clots) | Clot/heart ([2]; Fresh Clots) | Clot/liver ([2]; Fresh Clots) | Clot/lung ([2]; Fresh Clots) | % id/g (clot) [2, 4] [% id/g] | Rel. Conc. (cpm/g of clot by dose/g animal) [2, 4]
1 | Pn216-CO(CH2)3CO-NQEQVSPYTLLKG-NH2 ({Pn216-Glutaryl}-NQEQVSPYTLLKG-NH2; also: 99mTc complex) [^99mTc-Cmpd 39] | 23.0 | 0.1 | 23.1 |  | 15 | 43 | 11 | 12 | 2.4 ± 0.3 | 8.2 ± 1.1 | 9 | 29 | 31 | 14 | 2.5 ± 0.3 | 9.0 ± 1.1
2 | Ac-NQEQ(D-V)(D-S)(D-P)(D-Y)(D-T)(D-L)(D-L)(D-K)G-Pn44 [^99mTc-Cmpd 35] | 15.3 | 0.6 | 15.9 |  | 1 | 1 | 2 | 0.5 | 0.6 ± 0.1 | 1.5 ± 0.4 | 2 | 4 | 2 | 2 | 1.2 ± 0.2 | 3.7 ± 0.8
3 | Ac-(D-N)QEQVSP(D-Y)TLL(D-K)G-Pn216 [^99mTc-Cmpd 32] | 19.8 | 0.4 | 20.2 |  | 3 | 43 | 21 | 15 | 0.7 ± 0.1 | 2.0 ± 0.4 | 10 | 26 | 27 | 11 | 1.7 ± 0.7 | 4.6 ± 1.9
4 | Ac-LGPGQSKVIG-Pn44 (also: 99mTc complex) [^99mTc-Cmpd 45] | 28.6 | 0.1 | 28.7 |  | 8 | 11 | 3 | 5 | 2.0 ± 0.8 | 5.7 ± 2.3 | 6 | 10 | 3 | 5 | 2.0 ± 0.5 | 5.5 ± 1.3
5 | (CF3)2(C6H3)-NQEQVSPYTLLKG-Pn216 ({(CF3)2(C6H3)}-NQEQVSPYTLLKG-Pn216; also: 99mTc complex) [^99mTc-Cmpd 10] | 65.7 | 0.2 | 65.9 |  | 6 | 16 | 5 | 6 | 2.9 ± 1.4 | 6.3 ± 2.7 | 4 | 10 | 5 | 5 | 2.9 ± 0.5 | 6.5 ± 1.2

More lines, main results first:

Row | % specific uptake [1] [%] | % retained (no thrombin) [1] [%] | % retained (with thrombin) [1] [%] | in vitro clot uptake (in words) ([1]; in vitro clot) | Substance | Clot/blood ([2]; Aged Clots) | Clot/heart ([2]; Aged Clots) | Clot/liver ([2]; Aged Clots) | Clot/lung ([2]; Aged Clots) | % id/g (clot) [2, 3] [% id/g] | Rel. Conc. (cpm/g of clot by dose/g animal) [2, 3] | Clot/blood ([2]; Fresh Clots) | Clot/heart ([2]; Fresh Clots) | Clot/liver ([2]; Fresh Clots) | Clot/lung ([2]; Fresh Clots) | % id/g (clot) [2, 4] [% id/g] | Rel. Conc. (cpm/g of clot by dose/g animal) [2, 4]
6 | 14.0 | 0.2 | 14.2 |  | Z-NQEQVSPYAAAAG-Pn216 ({code Z}-NQEQVSPYAAAAG-Pn216; reading uncertain; also: 99mTc complex, printed as Z-NQEQVSPYAAAAG-Pn216) [^99mTc-Cmpd 42] | 5 | 21 | 6 | 7 | 0.4 ± 0.1 | 1.3 ± 0.3 | 2 | 1 | 63 | 0.3 | 0.3 ± 0.1 | 0.3 ± 0.2
7 | 41.9 | 0.2 | 42.1 |  | Ac-NQEQVSPYTLL(D-K)G-Pn216 [^99mTc-Cmpd 28] | 17 | 3 | 1 | 2 | 4.5 ± 1.1 | 13.1 ± 3.4 | 13 | 31 | 35 | 19 | 3.5 ± 2.0 | 9.7 ± 5.0
8 | 12.8 | 0.2 | 13.0 |  | Fmoc-NQQQ(D-V)S(OMe)PLG-Pn216 [^99mTc-Cmpd 37] | 0.4 | 2 | 9 | 1 | 0.2 ± 0.03 | 0.5 ± 0.1 | 0.6 | 1 | 1 | 0.7 | 0.4 ± 0.2 | 0.9 ± 0.4
9 | 37.4 | 7.1 | 44.5 |  | Ac-NQEQVSPYTLLKG-(PEG)10k-Pn216 (Ac-NQEQVSPYTLLKG-{PEG 10k-Pn216}; also: 99mTc complex) [^99mTc-Cmpd 41] | 1 | 13 | 4 | 6 | 0.4 ± 0.1 | 1.1 ± 0.3 | 3 | 6 | 8 | 4 | 0.7 ± 0.1 | 2.2 ± 0.3
10 | 10.5 | 0.1 | 10.6 | significant reduction in uptake | Ac-GQDPVKG-Pn216 (also: 99mTc complex) [^99mTc-Cmpd 48] | 1 | 32 | 26 | 109 | 0.2 ± 0.04 | 0.8 ± 0.2 | 0.6 | 2 | 3 | 0.9 | 0.3 ± 0.2 | 1.0 ± 0.5
